In PubChem BioAssay (NCI):
Where “and” joins values, the source holds several entries; their conditions need not be identical. Identical values can stand only once.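 48-hour exposure; five concentrations; linearly interpolated endpoints. Here, GI50 denotes the concentration required for 50% inhibition of growth. TGI marks complete inhibition of growth.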

How the values were obtained:
Assay in all cases: inhibition of tumour cell growth, NCI panel, 48 h
A498 renal = system: A498 renal
A549 NSCLC = system: A549 NSCLC
HS 578T breast = system: HS 578T breast
HT29 colon = system: HT29 colon
KM12 colon = system: KM12 colon
MCF7 breast = system: MCF7 breast
OVCAR-8 ovarian = system: OVCAR-8 ovarian
RXF 393 renal = system: RXF 393 renal
SW-620 colon = system: SW-620 colon
UACC-257 melanoma = system: UACC-257 melanoma

SMILES | GI50 (A498 renal) | TGI (A498 renal) | GI50 (A549 NSCLC) | TGI (A549 NSCLC) | GI50 (HS 578T breast) | TGI (HS 578T breast) | GI50 (HT29 colon) | TGI (HT29 colon) | GI50 (KM12 colon) | TGI (KM12 colon) | GI50 (MCF7 breast) | TGI (MCF7 breast) | GI50 (OVCAR-8 ovarian) | TGI (OVCAR-8 ovarian) | GI50 (RXF 393 renal) | TGI (RXF 393 renal) | GI50 (SW-620 colon) | TGI (SW-620 colon) | GI50 (UACC-257 melanoma) | TGI (UACC-257 melanoma)
COc1ccc2cc(-c3cnc4nonc4n3)ccc2c1 | 1.15 µM | 8.79 µM | 3.33 µM | > 100 µM | 1.23 µM | > 100 µM | 2.97 µM | > 100 µM | 2.03 µM | > 100 µM | 0.415 µM | > 100 µM | 2.54 µM | > 100 µM | 1.26 µM | 7.31 µM | 1.25 µM | > 100 µM | 7.89 µM | > 100 µM
CCC1=C(c2ccc(OC)cc2)C(C)(C)Oc2c1ccc(O)c2CN1CCCC1 | 1.23 µM | 7.95 µM | 3.63 µM | 26.8 µM | 3.44 µM | 35.1 µM | 3.14 µM | 8.94 µM | 1.91 µM | 3.9 µM | 1.57 µM | 3.2 µM | 2.11 µM | 4.94 µM | 1.24 µM | 3.87 µM | 1.71 µM | 3.3 µM | 1.78 µM | 3.85 µM
O=S(=O)(N=C1C(Cl)=C(Cl)C(=NS(=O)(=O)c2ccccc2)C(Cl)=C1Cl)c1ccccc1 | 15.9 µM | 50.9 µM | 32.3 µM | > 100 µM | – | – | 15.4 µM | 49.2 µM | 12.2 µM | 25.6 µM | 18 µM | > 100 µM | 17.7 µM | 50.6 µM | 15.8 µM | 30.9 µM | 13.4 µM | 28 µM | 24 µM | 86.3 µM
C[C@@H]1C[C@H](N)C[C@H](c2ccncc2NC(=O)c2ccc(F)c(-c3c(F)cccc3F)n2)C1 | 11.6 µM and 4.53 µM | 24.8 µM and > 10 µM | 15.9 µM and > 10 µM | 31.6 µM and > 10 µM | 13.4 µM and > 10 µM | 49 µM and > 10 µM | 4.17 µM and 5.55 µM | 18.7 µM and > 10 µM | 12.3 µM and > 10 µM | 27.7 µM and > 10 µM | 10.8 µM and > 10 µM | 25 µM and > 10 µM | 17.1 µM and > 10 µM | 32.8 µM and > 10 µM | 11 µM and 7.73 µM | 26 µM and > 10 µM | 11.6 µM and 9.63 µM | 25.2 µM and > 10 µM | – | –
COc1cc(-n2ccnc2-c2ccc3ccccc3c2)cc(OC)c1OC | 0.0451 µM | 1.42 µM | 0.12 µM | > 45.4 µM | 0.135 µM | 10.5 µM | < 0.0222 µM | > 37.6 µM | < 0.0198 µM | 18.9 µM | < 0.0199 µM | > 45.8 µM | 0.398 µM | > 53.1 µM | 0.17 µM | 0.749 µM | 0.0443 µM | > 63 µM | 20 µM | > 100 µM
Cc1ccc(OCC2CO2)c(Br)c1 (stereo not given) | – | > 100 µM | – | 62.2 µM | – | > 100 µM | – | 29.1 µM | – | > 100 µM | – | 34.9 µM | – | 20.4 µM | – | 26.5 µM | – | 33 µM | – | > 100 µM
NCCCCC(NC(=O)C(N)CCCN=C(N)N)C(=O)NC(CCCCN)C(=O)NC(CCCN=C(N)N)C(=O)NC(CCCN=C(N)N)C(=O)NC(CCC(N)=O)C(=O)NC(CCCN=C(N)N)C(=O)NC(CCCN=C(N)N)C(=O)NC(CCCN=C(N)N)C(=O)NCC(=O)NCC(=O)O (stereo not given) | > 50 µM | > 50 µM | > 50 µM | > 50 µM | > 50 µM | > 50 µM | > 50 µM | > 50 µM | > 50 µM | > 50 µM | > 50 µM | > 50 µM | > 50 µM | > 50 µM | > 50 µM | > 50 µM | > 50 µM | > 50 µM | – | –
CCSC[C@@H]1C[C@](O)(c2ccc(Cl)cc2)[C@@H](c2ccc(Cl)cc2)O1 | 17.8 µM | 32.1 µM | 17.3 µM | 33.2 µM | 18 µM | 39.6 µM | 15.6 µM | 30.8 µM | 15.4 µM | 30.9 µM | 21.8 µM | 48.5 µM | 17.4 µM | 45 µM | 23.2 µM | 38.5 µM | 14.4 µM | 33.6 µM | 15.1 µM | 30.1 µM
COc1ccc2c(c1)c(-c1nc(-c3cn(C)c4ccncc34)cs1)cn2C | 6.59 µM | 20.4 µM | 1.93 µM | 3.99 µM | – | – | 1.43 µM | 3.1 µM | 1.84 µM | 3.41 µM | 1.7 µM | 3.34 µM | – | – | 1.71 µM | 3.21 µM | 1.96 µM | 3.73 µM | 1.9 µM | 3.6 µM
CC1=CCC2CC1C(C(=O)c1c[nH]c3ccccc13)=NC2(C)C (stereo not given) | – | > 100 µM | – | > 100 µM | – | > 100 µM | – | > 100 µM | – | > 100 µM | – | > 100 µM | – | > 100 µM | – | – | – | > 100 µM | – | 93.4 µM
Cc1ccc(S(=O)(=O)ON2C(=O)c3cccc4cc([N+](=O)[O-])cc(c34)C2=O)cc1 | – | – | – | > 100 µM | – | > 100 µM | – | 79.3 µM | – | > 100 µM | – | > 100 µM | – | > 100 µM | – | > 100 µM | – | > 100 µM | – | > 100 µM
O=C1c2ccccc2C(=O)N1CCc1ncc(-c2ccccc2)[nH]1 | – | > 100 µM | – | > 100 µM | – | > 100 µM | – | > 100 µM | – | > 100 µM | – | > 100 µM | – | > 100 µM | – | – | – | > 100 µM | – | > 100 µM
O=C(C[n+]1ccccc1)N/N=C(/CCC(=O)N(Cc1ccccc1)Cc1ccccc1)CC(=O)c1ccccc1 | – | > 100 µM | – | > 100 µM | – | – | – | > 100 µM | – | > 100 µM | – | – | – | > 100 µM | – | > 100 µM | – | > 100 µM | – | > 100 µM
C=CCC1(C(=O)OC)CCC/C(=N\O)C1 (stereo not given) | – | – | – | > 10 µM | – | > 10 µM | – | > 10 µM | – | > 10 µM | – | > 10 µM | – | > 10 µM | – | – | – | > 10 µM | – | > 10 µM
O=[N+]([O-])c1nccn1CC(O)c1ccccc1 (stereo not given) | – | > 100 µM | – | > 100 µM | – | – | – | > 100 µM | – | > 100 µM | – | – | – | > 100 µM | – | > 100 µM | – | > 100 µM | – | > 100 µM
COc1cnc2c(c1)C(=O)c1c-2n(CCCN2CCCC2)c(=O)c2cc([N+](=O)[O-])ccc12 | – | – | 0.0463 µM | 1.15 µM | 1.91 µM | 23.2 µM | 0.0202 µM | 1.37 µM | 0.139 µM | 1.77 µM | < 0.01 µM | 1.46 µM | 0.0929 µM | 5.85 µM | 0.0611 µM | 0.533 µM | < 0.01 µM | 1.34 µM | 0.176 µM | 11 µM
CC(C)(C)C(=O)N1C(C(=O)O)Cc2ccccc2[C@@H]1Cc1ccccc1 (stereo not given in full) | – | > 100 µM | – | > 100 µM | – | – | – | > 100 µM | – | > 100 µM | – | – | – | > 100 µM | – | > 100 µM | – | > 100 µM | – | > 100 µM
COC(=O)/C=C1/SC(=Nc2cccc(Cl)c2)N(CCc2c[nH]c3ccc(O)cc23)C1=O | – | – | 2.65 µM | 6.95 µM | 2.68 µM | 8.99 µM | 1.87 µM | 3.57 µM | 1.53 µM | 3.29 µM | 1.69 µM | 4.73 µM | 2.32 µM | 6.72 µM | 1.51 µM | 2.97 µM | – | – | 1.96 µM | 3.99 µM
[N-]=[N+]=NCN1C(=O)C2C3C=CC(C2C1=O)C1C2C(=O)N(CN=[N+]=[N-])C(=O)C2C31 (stereo not given) | – | – | – | > 100 µM | – | > 100 µM | – | > 100 µM | – | > 100 µM | – | > 100 µM | – | > 100 µM | – | – | – | > 100 µM | – | > 100 µM
NC(=S)N1N=C2CCCCCC[C@@H]2[C@H]1c1ccccc1 | – | > 100 µM | – | > 100 µM | – | – | – | > 100 µM | – | > 100 µM | – | – | – | > 100 µM | – | > 100 µM | – | > 100 µM | – | > 100 µM
COc1ccc(C(=O)C2CCC(C(=O)O)C2)cc1 (stereo not given) | – | > 100 µM | – | > 100 µM | – | – | – | > 100 µM | – | > 100 µM | – | – | – | > 100 µM | – | > 100 µM | – | > 100 µM | – | > 100 µM
C(=N\Nc1ncc(-c2cc3cc4c(cc3o2)OCO4)s1)/c1ccco1 | – | – | 1.79 µM | 6.87 µM | 2.74 µM | 22.2 µM | 2.99 µM | 7.62 µM | 1.85 µM | 5.14 µM | 0.683 µM | 7.18 µM | 2.8 µM | > 100 µM | 1.8 µM | 5.13 µM | 0.681 µM | 2.48 µM | 3.83 µM | 23.2 µM
CN(C)c1ccc(/C=N/NC(N)=S)nc1 | 1.92 µM | 9.37 µM | 4.61 µM | > 100 µM | – | – | 4.46 µM | > 100 µM | 3.49 µM | > 100 µM | 1.64 µM | > 100 µM | 3.24 µM | > 100 µM | 4.16 µM | > 100 µM | 3.14 µM | > 100 µM | 24.4 µM | > 100 µM
NC(=O)CC1OC(=O)Cc2cc3c(c(O)c21)C(=O)c1c(O)cccc1C3=O (stereo not given) | – | > 100 µM | – | > 100 µM | – | – | – | > 100 µM | – | – | – | > 100 µM | – | > 100 µM | – | – | – | > 100 µM | – | > 100 µM
